System: E. coli ATCC 25922
Test: LIVE/DEAD staining (SYTO 9 / propidium iodide)
Assay type: cell-based, Escherichia coli
Settings: E. coli ATCC 25922, tridecaptins at 1 × MIC, polymyxin 4 μg/mL (2 × MIC), 15 min, microscopy
Method: This assay was performed according to a previously described procedure.[55],[56] Briefly, overnight cultures of E. coli ATCC 25922 and S. aureus ATCC 29213 were diluted to an OD600 of 0.2 in MHB and mixed with 1 × MIC of Oct-TriA1, Oct-TriA5, and Oct-TriD. Nisin and polymyxin B were used as positive controls at a concentration of 2-fold MIC. At the same time, green fluorescent nucleic acid stain SYTO 9 (excitation, 450–490 nm; emission, 500–550 nm) and red fluorescent nucleic acid stain propidium iodide (excitation, 574–599 nm; emission, 612–682 nm) (LIVE/DEAD Baclight Bacterial Viability Kit, Invitrogen) were added to the above cell suspensions. After mixing and incubating for 15 min in the dark at RT, cells were briefly sedimented via centrifugation and resuspended in fresh MHB. Then, the cell suspensions were loaded on 1.5% agarose pads and analyzed by a Zeiss Imager M2 microscope. Confocal images were obtained at 4 random locations for each sample and visualized using FIJI version 1.51H.[57]

polymyxin B
LIVE/DEAD staining, membrane integrity of E. coli cells: death of half of the E. coli cells
